Data from patent US20020137929A1, “1 - (3-heterocyclylphenyl) isothiourea, -isourea, -guanidine and -amidine herbicidal agents” (Intellectual Property Department, BASF Aktiengesellschaft, priority 1998, published 2002).

Columns and labels:
ABUTH (Velvetleaf) = experiment: Postemergence herbicidal evaluation; type: in vivo, Abutilon theophrasti; details: for ABUTH herbicidal rating: postemergence
Outline: (§1)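 ~2-wk seedlings; postemergence spray, 40 psi; vehicle 1:1 acetone:water + 0.5% Tween 20; rate ≈0.0156–0.500 kg/ha; greenhouse hold; scored 4–5 wk after treatment, 0–9 scale vs control; repeat tests averaged.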

[1] = system: CHEAL (Lambsquarters, Common); experiment: Postemergence herbicidal evaluation; type: in vivo, Chenopodium album; details: for CHEAL herbicidal rating: postemergence
Outline: as §1

SETVI (Foxtail, Green) [2] = experiment: Postemergence herbicidal evaluation; type: in vivo, Setaria viridis; details: for SETVI herbicidal rating: postemergence
Outline: as §1

[3] = system: GLXMAW (Soybean, Williams); experiment: Postemergence herbicidal evaluation; type: in vivo, Glycine max, (L.) Merr. cv Williams; details: for GLXMAW herbicidal rating: postemergence
Outline: as §1

ORYSAT (Rice, Tebonnet) = experiment: Postemergence herbicidal evaluation; type: in vivo, Oryza sativa, (L.) Tebonnet; details: for ORYSAT herbicidal rating: postemergence
Outline: as §1

[4] = system: TRZAWR (Wheat, Winter, cv Riband); experiment: Postemergence herbicidal evaluation; type: in vivo, Triticum aestivum; details: for TRZAWR herbicidal rating: postemergence
Outline: as §1

ZEAMX (Corn, Field) = experiment: Postemergence herbicidal evaluation; type: in vivo, Zea mays; details: for ZEAMX herbicidal rating: postemergence
Outline: as §1

AMBEL (Ragweed, Common) = experiment: Preemergence herbicidal evaluation; type: in vivo, Ambrosia artemisifolia; details: rated 4-5 weeks after treatment
Outline: (§2)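 Steps: mix seeds into potting soil; plant atop ~1 inch soil; spray compound in aqueous acetone (~0.0156-0.500 kg/ha equivalent); maintain in greenhouse with watering; rate visually 0-9 versus control at 4-5 weeks.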

GALAP (Galium) = experiment: Preemergence herbicidal evaluation; type: in vivo, Galium aparine; details: rated 4-5 weeks after treatment
Outline: as §2

SETVI (Foxtail, Green) [5] = experiment: Preemergence herbicidal evaluation; type: in vivo, Setaria viridis; details: rated 4-5 weeks after treatment
Outline: as §2

CYPIR (Rice Flatsedge) = experiment: Preemergence weed control under flooded paddy conditions; type: in vivo, Cyperus iria; details: rated 3-4 weeks after treatment
Outline: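 Visual injury scored 0-9 against control three to four weeks post-treatment, greenhouse-grown. Application: acetone/water (50/50) solutions dosed directly into flood water (1.5-3 cm over silt loam, planted top 0.5 cm), roughly 0.0313 to 0.500 kg/ha active ingredient.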

[6] = system: ECHORC (Watergrass (Calif.)); experiment: Postemergence weed control under flooded paddy conditions; type: in vivo, Echinochloa oryzoides; details: postemergence weeds, 3-4 weeks after treatment
Outline: (§3)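 Flood-water application, about 0.0313–0.500 kg/ha a.i. in aqueous/acetone 50/50 v/v; water depth 1.5–3 cm throughout. Weeds 3–5 cm, rice 1.5–2.5 leaf. Greenhouse; 0–9 visual rating vs control at 3–4 wk.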

CYPSE (Flatsedge) = experiment: as above; type: in vivo, Cyperus serotinus; details: postemergence weeds, 3-4 weeks after treatment
Outline: as §3

[7] = system: SAGPY (Arrowhead (Pygmaea)); experiment: as above; type: in vivo, Sagittaria pygmaea; details: postemergence weeds, 3-4 weeks after treatment
Outline: as §3

`CCOC(=O)CN1C(=O)C(=Cc2ccc(F)cc2)SC1=Nc1cc(-n2c(=O)cc(C(F)(F)F)n(C)c2=O)c(F)cc1Cl` [Compound 21, Ethyl 2-{{2-chloro-5-[3,6-dihydro-3-methyl-2,6-dioxo-4-(trifluoromethyl)-1(2H)-pyrimidinyl]-4-fluorophenyl}imino}-5-(p-fluorobenzylidene)-4-oxo-3-thiazolidineacetate] gave an ABUTH herbicidal rating (ABUTH (Velvetleaf); rate 0.0158 kg/ha) of 4.0, an ABUTH herbicidal rating (ABUTH (Velvetleaf); rate 0.0315 kg/ha) of 7.0 and an ABUTH herbicidal rating (ABUTH (Velvetleaf); rate 0.0630 kg/ha) of 9.0. The CHEAL herbicidal rating ([1]; rate 0.0158 kg/ha) was 2.0, the CHEAL herbicidal rating ([1]; rate 0.0315 kg/ha) was 5.0 and the CHEAL herbicidal rating ([1]; rate 0.0630 kg/ha) was 7.0. It also gave an SETVI herbicidal rating (SETVI (Foxtail, Green) [2]; rate 0.0158 kg/ha) of 0.0, an SETVI herbicidal rating (SETVI (Foxtail, Green) [2]; rate 0.0315 kg/ha) of 2.0 and an SETVI herbicidal rating (SETVI (Foxtail, Green) [2]; rate 0.0630 kg/ha) of 2.0. The GLXMAW herbicidal rating ([3]; rate 0.0158 kg/ha) was 2.0, the GLXMAW herbicidal rating ([3]; rate 0.0315 kg/ha) was 2.5 and the GLXMAW herbicidal rating ([3]; rate 0.0630 kg/ha) was 4.5. The ORYSAT herbicidal rating (ORYSAT (Rice, Tebonnet); rate 0.0158 kg/ha) was 2.0, the ORYSAT herbicidal rating (ORYSAT (Rice, Tebonnet); rate 0.0315 kg/ha) was 2.5 and the ORYSAT herbicidal rating (ORYSAT (Rice, Tebonnet); rate 0.0630 kg/ha) was 2.5. It also gave a TRZAWR herbicidal rating ([4]; rate 0.0158 kg/ha) of 2.5, a TRZAWR herbicidal rating ([4]; rate 0.0315 kg/ha) of 3.5 and a TRZAWR herbicidal rating ([4]; rate 0.0630 kg/ha) of 3.5. It also gave a ZEAMX herbicidal rating (ZEAMX (Corn, Field); rate 0.0158 kg/ha) of 4.0, a ZEAMX herbicidal rating (ZEAMX (Corn, Field); rate 0.0315 kg/ha) of 4.0 and a ZEAMX herbicidal rating (ZEAMX (Corn, Field); rate 0.0630 kg/ha) of 4.5. For the same compound, the “AMBEL preemergence herbicidal rating” value (AMBEL (Ragweed, Common); rate 0.2500 kg/ha) was 0.0, the “GALAP preemergence herbicidal rating” value (GALAP (Galium); rate 0.2500 kg/ha) was 0.0 and the “SETVI preemergence herbicidal rating” value (SETVI (Foxtail, Green) [5]; rate 0.2500 kg/ha) was 0.0. For the same compound, the “Herbicidal rating CYPIR” value (CYPIR (Rice Flatsedge); 0.1160 kg/ha) was 0.0, the “Herbicidal rating CYPIR” value (CYPIR (Rice Flatsedge); 0.2310 kg/ha) was 0.0 and the “Herbicidal rating CYPIR” value (CYPIR (Rice Flatsedge); 0.4630 kg/ha) was 0.0. For the same compound, the “Herbicidal rating ECHORC” value ([6]; rate 0.1160 kg/ha) was 2.0, the “Herbicidal rating ECHORC” value ([6]; rate 0.2310 kg/ha) was 4.0 and the “Herbicidal rating ECHORC” value ([6]; rate 0.4630 kg/ha) was 5.0. For the same compound, the “Herbicidal rating CYPSE” value (CYPSE (Flatsedge); rate 0.1160 kg/ha) was 0.0, the “Herbicidal rating CYPSE” value (CYPSE (Flatsedge); rate 0.2310 kg/ha) was 0.0 and the “Herbicidal rating CYPSE” value (CYPSE (Flatsedge); rate 0.4630 kg/ha) was 0.0. For the same compound, the “Herbicidal rating SAGPY” value ([7]; rate 0.1160 kg/ha) was 0.0, the “Herbicidal rating SAGPY” value ([7]; rate 0.2310 kg/ha) was 0.0 and the “Herbicidal rating SAGPY” value ([7]; rate 0.4630 kg/ha) was 0.0.

`O=C(O)CC1SC(=Nc2cc(N3C(=O)C4=C(CCCC4)C3=O)c(F)cc2Cl)N(CC(=O)O)C1=O` (centres unmarked) [Compound 48, 2-{[2-Chloro-5-(1-cyclohexene-1,2-dicarboximido)-4-fluorophenyl]imino}-4-oxo-3,5-thiazolidinediacetic acid] was tested, and the “Postemergence herbicidal rating ABUTH” value (ABUTH (Velvetleaf); Rate 0.0156 kg/ha) was 9.0, the “Postemergence herbicidal rating ABUTH” value (ABUTH (Velvetleaf); Rate 0.0313 kg/ha) was 9.0 and the “Postemergence herbicidal rating ABUTH” value (ABUTH (Velvetleaf); Rate 0.0625 kg/ha) was 9.0. For the same compound, the “Postemergence herbicidal rating CHEAL” value ([1]; Rate 0.0156 kg/ha) was 3.0, the “Postemergence herbicidal rating CHEAL” value ([1]; Rate 0.0313 kg/ha) was 4.0 and the “Postemergence herbicidal rating CHEAL” value ([1]; Rate 0.0625 kg/ha) was 4.0. The “Postemergence herbicidal rating SETVI” value (SETVI (Foxtail, Green) [2]; Rate 0.0156 kg/ha) was 0.0, the “Postemergence herbicidal rating SETVI” value (SETVI (Foxtail, Green) [2]; Rate 0.0313 kg/ha) was 0.0 and the “Postemergence herbicidal rating SETVI” value (SETVI (Foxtail, Green) [2]; Rate 0.0625 kg/ha) was 2.0. The “Postemergence herbicidal rating GLXMAW” value ([3]; Rate 0.0156 kg/ha) was 5.5, the “Postemergence herbicidal rating GLXMAW” value ([3]; Rate 0.0313 kg/ha) was 6.0 and the “Postemergence herbicidal rating GLXMAW” value ([3]; Rate 0.0625 kg/ha) was 7.5. The “Postemergence herbicidal rating ORYSAT” value (ORYSAT (Rice, Tebonnet); Rate 0.0156 kg/ha) was 0.5, the “Postemergence herbicidal rating ORYSAT” value (ORYSAT (Rice, Tebonnet); Rate 0.0313 kg/ha) was 0.5 and the “Postemergence herbicidal rating ORYSAT” value (ORYSAT (Rice, Tebonnet); Rate 0.0625 kg/ha) was 2.0. For the same compound, the “Postemergence herbicidal rating TRZAWR” value ([4]; Rate 0.0156 kg/ha) was 5.0, the “Postemergence herbicidal rating TRZAWR” value ([4]; Rate 0.0313 kg/ha) was 5.0 and the “Postemergence herbicidal rating TRZAWR” value ([4]; Rate 0.0625 kg/ha) was 5.0. For the same compound, the “Postemergence herbicidal rating ZEAMX” value (ZEAMX (Corn, Field); Rate 0.0156 kg/ha) was 5.5, the “Postemergence herbicidal rating ZEAMX” value (ZEAMX (Corn, Field); Rate 0.0313 kg/ha) was 5.5 and the “Postemergence herbicidal rating ZEAMX” value (ZEAMX (Corn, Field); Rate 0.0625 kg/ha) was 6.5. The “Preemergence herbicidal rating AMBEL” value (AMBEL (Ragweed, Common); rate 0.0156 kg/ha) was 0.0, the “Preemergence herbicidal rating AMBEL” value (AMBEL (Ragweed, Common); rate 0.0313 kg/ha) was 0.0 and the “Preemergence herbicidal rating AMBEL” value (AMBEL (Ragweed, Common); rate 0.0625 kg/ha) was 0.0. For the same compound, the “Preemergence herbicidal rating AMBEL” value (AMBEL (Ragweed, Common); rate 0.1250 kg/ha) was 0.0, the “Preemergence herbicidal rating AMBEL” value (AMBEL (Ragweed, Common); rate 0.2500 kg/ha) was 4.0 and the “Preemergence herbicidal rating GALAP” value (GALAP (Galium); rate 0.0156 kg/ha) was 0.0. For the same compound, the “Preemergence herbicidal rating GALAP” value (GALAP (Galium); rate 0.0313 kg/ha) was 0.0, the “Preemergence herbicidal rating GALAP” value (GALAP (Galium); rate 0.0625 kg/ha) was 0.0 and the “Preemergence herbicidal rating GALAP” value (GALAP (Galium); rate 0.1250 kg/ha) was 0.0. The “Preemergence herbicidal rating GALAP” value (GALAP (Galium); rate 0.2500 kg/ha) was 0.0, the “Preemergence herbicidal rating SETVI” value (SETVI (Foxtail, Green) [5]; rate 0.0156 kg/ha) was 0.0 and the “Preemergence herbicidal rating SETVI” value (SETVI (Foxtail, Green) [5]; rate 0.0313 kg/ha) was 0.0. For the same compound, the “Preemergence herbicidal rating SETVI” value (SETVI (Foxtail, Green) [5]; rate 0.0625 kg/ha) was 0.0, the “Preemergence herbicidal rating SETVI” value (SETVI (Foxtail, Green) [5]; rate 0.1250 kg/ha) was 0.0 and the “Preemergence herbicidal rating SETVI” value (SETVI (Foxtail, Green) [5]; rate 0.2500 kg/ha) was 0.0. For the same compound, the “Herbicidal rating CYPIR” value (CYPIR (Rice Flatsedge); 0.1250 kg/ha) was 2.0, the “Herbicidal rating CYPIR” value (CYPIR (Rice Flatsedge); 0.2500 kg/ha) was 5.0 and the “Herbicidal rating ECHORC” value ([6]; rate 0.1250 kg/ha) was 3.0. For the same compound, the “Herbicidal rating ECHORC” value ([6]; rate 0.2500 kg/ha) was 6.0, the “Herbicidal rating CYPSE” value (CYPSE (Flatsedge); rate 0.1250 kg/ha) was 0.0 and the “Herbicidal rating CYPSE” value (CYPSE (Flatsedge); rate 0.2500 kg/ha) was 0.0. For the same compound, the “Herbicidal rating SAGPY” value ([7]; rate 0.1250 kg/ha) was 3.0 and the “Herbicidal rating SAGPY” value ([7]; rate 0.2500 kg/ha) was 6.0.
